Assay results as given in patent publication US11285156B2, “Substituted piperazines as KRAS G12C inhibitors” (Amgen Inc., priority 2018, dated 2022).
Where two headings read alike, the source gives them in different places.

Tests used:
[1] = system: Phosphorylation of ERK1/2 in A549 cells; assay: Phospho-ERK1/2 MSD assay in A549 cells; format: cell-based; settings: read-out: p-ERK IC50 (2 h, A549; μM)
Description: (§1) Phospho-ERK1/2 MSD Assay:
(§2) MIA PaCa-2 (ATCC® CRL-1420™) and A549 (ATCC® CCL-185™) cells were cultured in RPMI 1640 Medium (ThermoFisher Scientific 11875093) containing 10% fetal bovine serum (ThermoFisher Scientific 16000044) and 1× penicillin-streptomycin-glutamine (ThermoFisher Scientific 10378016). Sixteen hours prior to compound treatment, MIA PaCa-2 or A549 cells were seeded in 96-well cell culture plates at a density of 25,000 cells/well and incubated at 37° C., 5% CO2. A compound dose-response titration was diluted in growth media, added to appropriate wells of a cell culture plate, and then incubated at 37° C., 5% CO2 for 2 or 4 hours (see Table 15). Following compound treatment, cells were stimulated with 10 ng/mL EGF (Roche 11376454001) for 10 min, washed with ice-cold Dulbecco's phosphate-buffered saline, no Ca2+ or Mg2+ (ThermoFisher Scientific 14190144), and then lysed in RIPA buffer (50 mM Tris-HCl pH 7.5, 1% Igepal, 0.5% sodium deoxycholate, 150 mM NaCl. and 0.5% sodium dodecyl sulfate) containing protease inhibitors (Roche 4693132001) and phosphatase inhibitors (Roche 4906837001). Phosphorylation of ERK1/2 in compound-treated lysates was assayed using Phospho-ERK1/2 Whole Cell Lysate kits (Meso Scale Discovery K151DWD) according to the manufacturer's protocol.

[2] = system: Phosphorylation of ERK1/2 in MIA PaCa-2 cells; assay: Phospho-ERK1/2 MSD assay in MIA PaCa-2 cells; format: cell-based; settings: read-out: p-ERK IC50 (2 h, MiaPaCa-2; μM)
Description: as §1
as §2, with “Sixteen” for “MIA PaCa-2 (ATCC® CRL-1420™) and A549 (ATCC® CCL-185™) cells were cultured in RPMI 1640 Medium (ThermoFisher Scientific 11875093) containing 10% fetal bovine serum (ThermoFisher Scientific 16000044) and 1× penicillin-streptomycin-glutamine (ThermoFisher Scientific 10378016). Sixteen”

[3] = 2 h compound treatment, A549 cells, EGF stimulated
[4] = 2 h compound treatment, MIA PaCa-2 cells, EGF stimulated
[5] = Homo sapiens, A549, 2 h, 2 h compound treatment, A549 cells, EGF stimulated
[6] = Homo sapiens, MIA PaCa-2, 2 h, 2 h compound treatment, MIA PaCa-2 cells, EGF stimulated

In the case of C=CC(=O)N1C[C@H](C)N(c2nc(=O)n(-c3c(C(C)C)ccnc3C(C)C)c3nc(-c4ccccc4Cl)c(Cl)cc23)C[C@H]1C (single isomer, unassigned) [Example 125-6], the IC50 [1, 3] is reported as > 7.5 µM and the IC50 [2, 4] is reported as 0.105 µM.

In the case of C=CC(=O)N1C[C@H](C)N(c2nc(=O)n(-c3c(C(C)C)ccnc3C(C)C)c3nc(-c4ccccc4)c(Cl)cc23)C[C@H]1C (single isomer, unassigned) [Example 125-7], the IC50 [1, 3] is reported as > 7.5 µM and the IC50 [2, 4] is reported as 0.137 µM.

C=CC(=O)N1C[C@H](C)N(c2nc(=O)n(-c3c(C)cc(C)nc3C(C)C)c3nc(-c4ccccc4F)c(Cl)cc23)C[C@H]1C (single isomer, unassigned) [Example 165-1] was tested, and the IC50 [1, 5] was > 7.5 µM and the IC50 [2, 6] was 0.049 µM.

Work on C=CC(=O)N1C[C@H](C)N(c2nc(=O)n(-c3c(C)cc(C(=C)C)nc3C(C)C)c3nc(-c4ccccc4F)c(Cl)cc23)C[C@H]1C (single isomer, unassigned) [Example 173-1] yielded an IC50 [1, 5] of 5.97 µM and an IC50 [2, 6] of 0.229 µM.

With C=CC(=O)N1C[C@H](C)N(c2nc(=O)n(-c3c(C)cc(N4CCC4)nc3C(C)C)c3nc(-c4ccccc4F)c(Cl)cc23)C[C@H]1C (single isomer, unassigned) [Example 175-2] the IC50 [1, 5] was > 7.5 µM and the IC50 [2, 6] was 0.171 µM.

For C=CC(=O)N1C[C@H](C)N(c2nc(=O)n(-c3c(C)cc(C(C)C)nc3C(C)C)c3nc(-c4ccccc4F)c(Cl)cc23)C[C@H]1C (single isomer, unassigned) [Example 176-1], the IC50 [1, 5] was 5.75 µM and the IC50 [2, 6] was 0.347 µM.

Work on C=CC(=O)N1C[C@H](C)N(c2nc(=O)n(-c3c(C)cc(C=C)nc3C(C)C)c3nc(-c4ccccc4F)c(Cl)cc23)C[C@H]1C (single isomer, unassigned) [Example 177-1] yielded an IC50 [1, 5] of 3.34 µM and an IC50 [2, 6] of 0.063 µM.

For C=CC(=O)N1[C@H](C)CN(c2nc(=O)n(-c3c(C(C)C)cnnc3C(C)C)c3nc(-c4ccccc4F)c(Cl)cc23)C[C@@H]1C (single isomer, unassigned) [Example 206-1, 4-(cis-4-Acryloyl-3,5-dimethylpiperazin-1-yl)-6-chloro-1-(3,5-diisopropylpyridazin-4-yl)-7-(2-fluorophenyl)pyrido[2,3-d]pyrimidin-2(1H)-one], the IC50 [1, 5] was > 7.5 µM and the IC50 [2, 6] was 0.1 µM.

In the case of C=CC(=O)N1C[C@H](C)N(c2nc(=O)n(-c3c(Cl)ccnc3C(C)C)c3nc(-c4ccccc4F)c(Cl)cc23)C[C@H]1C [Example 55-50, 6-Chloro-1-(4-chloro-2-isopropyl-3-pyridyl)-4-[(2S,5R)-2,5-dimethyl-4-prop-2-enoyl-piperazin-1-yl]-7-(2-fluorophenyl)pyrido[2,3-d]pyrimidin-2-one], the IC50 [1, 5] is reported as > 7.5 µM and the IC50 [2, 6] is reported as 0.023 µM.

C=CC(=O)N1C[C@H](C)N(c2nc(=O)n(-c3c(N(C)C)ccnc3C(C)C)c3nc(-c4c(N)cccc4F)c(Cl)cc23)C[C@H]1C [Example 55-54, 7-(2-Amino-6-fluoro-phenyl)-6-chloro-1-[4-(dimethylamino)-2-isopropyl-3-pyridyl]-4-[(2S,5R)-2,5-dimethyl-4-prop-2-enoyl-piperazin-1-yl]pyrido[2,3-d]pyrimidin-2-one] was tested, and the IC50 [1, 5] was > 7.5 µM and the IC50 [2, 4] was 0.016 µM.

With C=CC(=O)N1C[C@H](C)N(c2nc(=O)n(-c3c(N(C)C)ccnc3C(C)C)c3nc(-c4c(N)cccc4F)c(Cl)cc23)C[C@H]1C [Example 55-56, 7-(2-Amino-6-fluoro-phenyl)-6-chloro-1-[4-(dimethylamino)-2-isopropyl-3-pyridyl]-4-[(2S,5R)-2,5-dimethyl-4-prop-2-enoyl-piperazin-1-yl]pyrido[2,3-d]pyrimidin-2-one] the IC50 [1, 3] was > 7.5 µM and the IC50 [2, 4] was 0.01 µM.

C=CC(=O)N1C[C@H](C)N(c2nc(=O)n(-c3c(N(C)C)ccnc3C(C)C)c3nc(-c4c(N)cccc4F)c(Cl)cc23)C[C@H]1C [Example 55-57, 7-(2-Amino-6-fluoro-phenyl)-6-chloro-1-[4-(dimethylamino)-2-isopropyl-3-pyridyl]-4-[(2S,5R)-2,5-dimethyl-4-prop-2-enoyl-piperazin-1-yl]pyrido[2,3-d]pyrimidin-2-one] was tested, and the IC50 [1, 3] was > 7.5 µM and the IC50 [2, 4] was 0.177 µM.

With C=CC(=O)N1C[C@H](C)N(c2nc(=O)n(-c3c(CC)ccnc3C(C)C)c3nc(-c4ccccc4F)c(Cl)cc23)C[C@H]1C [Example 55-58, 6-Chloro-4-[(2S,5R)-2,5-dimethyl-4-prop-2-enoyl-piperazin-1-yl]-l-(4-ethyl-2-isopropyl-3-pyridyl)-7-(2-fluorophenyl)pyrido[2,3-d]pyrimidin-2-one] the IC50 [1, 5] was > 7.5 µM and the IC50 [2, 6] was 0.056 µM.

In the case of C=CC(=O)N1C[C@H](C)N(c2nc(=O)n(-c3c(C(C)C)cccc3C(C)C)c3nc(-c4ccccc4F)c(Cl)cc23)C[C@H]1C [Example 102-1, 4-((2S,5R)-4-Acryloyl-2,5-dimethylpiperazin-1-yl)-6-chloro-1-(2,6-diisopropylphenyl)-7-(2-fluorophenyl)pyrido[2,3-d]pyrimidin-2(1H)-one], the IC50 [1, 5] is reported as 5.25 µM and the IC50 [2, 6] is reported as 0.395 µM.

C=CC(=O)N1C[C@H](C)N(c2nc(=O)n(-c3c(C(C)C)ccnc3C(C)C)c3nc(-c4ccccc4F)c(Cl)cc23)C[C@H]1C [Example 102-3, 6-Chloro-1-(2,4-diisopropyl-3-pyridyl)-4-[(2S,5R)-2,5-dimethyl-4-prop-2-enoyl-piperazin-1-yl]-7-(2-fluorophenyl) pyrido[2,3-d]pyrimidin-2-one] was tested, and the IC50 [1, 5] was > 7.5 µM and the IC50 [2, 4] was 0.032 µM.

In the case of C=CC(=O)N1C[C@H](C)N(c2nc(=O)n(-c3c(C(C)C)cc(Br)nc3C(C)C)c3nc(-c4ccccc4F)c(Cl)cc23)C[C@H]1C [Example 102-4, 1-(6-Bromo-2,4-diisopropyl-3-pyridyl)-6-chloro-4-[(2S,5R)-2,5-dimethyl-4-prop-2-enoyl-piperazin-1-yl]-7-(2-fluorophenyl) pyrido[2,3-d]pyrimidin-2-one], the IC50 [1, 5] is reported as 4.73 µM and the IC50 [2, 6] is reported as 0.262 µM.

C=CC(=O)N1C[C@H](C)N(c2nc(=O)n(-c3c(C(C)C)ccnc3C(C)C)c3nc(-c4ccccc4F)c(Cl)cc23)C[C@H]1C [Example 124-1, 6-Chloro-1-(2,4-diisopropyl-3-pyridyl)-4-[(2S,5R)-2,5-dimethyl-4-prop-2-enoyl-piperazin-1-yl]-7-(2-fluorophenyl)pyrido[2,3-d]pyrimidin-2-one] was tested, and the IC50 [1, 3] was > 7.5 µM and the IC50 [2, 4] was 0.024 µM.

For C=CC(=O)N1C[C@H](C)N(c2nc(=O)n(-c3c(C(C)C)ccnc3C(C)C)c3nc(-c4ccccc4)c(Cl)cc23)C[C@H]1C [Example 124-7, 6-Chloro-1-(2,4-diisopropyl-3-pyridyl)-4-[(2S,5R)-2,5-dimethyl-4-prop-2-enoyl-piperazin-1-yl]-7-phenyl-pyrido[2,3-d]pyrimidin-2-one], the IC50 [1, 5] was > 7.5 µM and the IC50 [2, 6] was 0.093 µM.

C=CC(=O)N1C[C@H](C)N(c2nc(=O)n(-c3c(C(C)C)ccnc3C(C)C)c3nc(-c4ccccc4C(C)C)c(Cl)cc23)C[C@H]1C [Example 124-8, 6-Chloro-1-(2,4-diisopropyl-3-pyridyl)-4-[(2S,5R)-2,5-dimethyl-4-prop-2-enoyl-piperazin-1-yl]-7-(2-isopropylphenyl)pyrido[2,3-d]pyrimidin-2-one] was tested, and the IC50 [1, 5] was 6.36 µM and the IC50 [2, 6] was 0.24 µM.

In the case of C=CC(=O)N1C[C@H](C)N(c2nc(=O)n(-c3c(C(C)C)nc(CN(C)C)nc3C(C)C)c3nc(-c4ccccc4F)c(Cl)cc23)C[C@H]1C [Example 160, 4-((2S,5R)-4-Acryloyl-2,5-dimethylpiperazin-1-yl)-6-chloro-1-(2-((dimethylamino)methyl)-4,6-diisopropylpyrimidin-5-yl)-7-(2-fluorophenyl)pyrido[2,3-d]pyrimidin-2(1H)-one], the IC50 ([1]; Homo sapiens, A549, 2 h) is reported as > 7.5 µM and the IC50 ([2]; Homo sapiens, MIA PaCa-2, 2 h) is reported as 0.058 µM.
